Columns and labels:
[1] = system: mice; test: formalin paw test; format: in vivo, mouse
Procedure: AAK1 homozygous (−/−) and their wild-type (+/+) littermates were tested using the formalin paw test in order to assess their acute and tonic nociceptive responses. For these tests, Automatic Nociception Analyzers (purchased from the Ozaki lab at University of California, San Diego) were used. A metal band was placed around the left hind paw of each mouse 30 minutes prior to testing. After the 30-minute acclimation period, 20 μl of 5% formalin is subcutaneously injected in the dorsal surface of the left hind paw. Mice were individually housed in cylindrical chambers for 45 minutes. Fresh 5% formalin solution was prepared by diluting formaldehyde (Formalde-fresh 20%, Fisher Scientific, Fair Lawn, N.J.) with distilled water. Investigatory compounds were administered 30 minutes prior to formalin injection.
A computer recorded flinches per minute, total flinches for phase I (acute phase=first 8 minutes), and total flinches for phase II (tonic phase=time between minutes 20-40) through an electromagnetic field. See Yaksh T L, Ozaki G, McCumber D, Rathbun M, Svensson C, Malkmus S, Yaksh M C. An automated flinch detecting system for use in the formalin nociceptive bioassay. J Appl Physiol., 2001; 90:2386-402.
The same test was used to confirm that the administration of an AAK1 inhibitor can also affect pain response.
A compound of the disclosure was tested in this assay at different doses. Gabapentin and pregabalin were used as positive controls. Results are shown below in Table 2, wherein the effect of gabapentin at 200 mg/kg is considered a 100% response, the % response for the other compounds is relative to the 200 mg/kg dose of gabapentin, “sc” means subcutaneous administration; “po” means oral administration.

[2] = target: T1, GST-Xa-hAAK1 (Homo sapiens, UniProt Q2M2I8); test: AAK1 kinase assay; format: biochemical; conditions: ATP 22 μM; given as IC50 range
T1 construct: made in house
T1 sequence (Q2M2I8 whole entry): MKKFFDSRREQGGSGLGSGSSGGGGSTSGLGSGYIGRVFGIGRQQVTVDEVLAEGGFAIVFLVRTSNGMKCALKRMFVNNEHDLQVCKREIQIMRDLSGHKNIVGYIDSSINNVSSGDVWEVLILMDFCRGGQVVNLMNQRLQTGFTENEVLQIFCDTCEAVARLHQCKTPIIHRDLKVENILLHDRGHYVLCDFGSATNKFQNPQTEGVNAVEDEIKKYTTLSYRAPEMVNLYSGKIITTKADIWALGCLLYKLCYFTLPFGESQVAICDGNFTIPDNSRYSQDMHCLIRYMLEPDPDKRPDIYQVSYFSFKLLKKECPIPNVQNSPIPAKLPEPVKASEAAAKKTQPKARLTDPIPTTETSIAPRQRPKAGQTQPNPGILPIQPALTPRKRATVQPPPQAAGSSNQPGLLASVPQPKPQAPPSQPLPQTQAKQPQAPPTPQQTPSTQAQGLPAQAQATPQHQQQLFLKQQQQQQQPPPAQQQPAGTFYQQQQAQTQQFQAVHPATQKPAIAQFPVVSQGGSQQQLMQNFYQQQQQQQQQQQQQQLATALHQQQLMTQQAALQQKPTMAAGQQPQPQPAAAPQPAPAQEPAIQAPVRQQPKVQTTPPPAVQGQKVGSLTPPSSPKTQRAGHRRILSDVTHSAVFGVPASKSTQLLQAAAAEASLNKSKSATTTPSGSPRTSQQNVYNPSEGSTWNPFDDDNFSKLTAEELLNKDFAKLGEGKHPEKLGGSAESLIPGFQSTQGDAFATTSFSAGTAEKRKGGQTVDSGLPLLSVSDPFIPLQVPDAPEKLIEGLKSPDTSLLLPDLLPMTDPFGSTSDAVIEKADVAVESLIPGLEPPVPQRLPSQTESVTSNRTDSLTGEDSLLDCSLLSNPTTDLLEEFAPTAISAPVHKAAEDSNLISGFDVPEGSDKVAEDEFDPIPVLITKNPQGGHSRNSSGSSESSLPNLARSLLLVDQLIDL
Procedure: The assays were performed in U-bottom 384-well plates. […] The reactions were initiated by the combination of bacterially expressed, GST-Xa-hAAK1 with substrates and test compounds. The reactions were incubated at room temperature for 3 hours and terminated by adding 60 μl of 35 mM EDTA buffer to each sample. The reactions were analyzed on the Caliper LabChip 3000 (Caliper, Hopkinton, Mass.) by electrophoretic separation of the fluorescent substrate and phosphorylated product. […] Compounds were dissolved at 10 mM in dimethylsulfoxide (DMSO) and evaluated at eleven concentrations. IC50 values were derived by non-linear regression analysis.

[3] = target: T2, AAK1 (full length human) in HEK293F cells (Homo sapiens, UniProt Q2M2I8); test: HEK281 cell-based assay (phospho-mu2 Western blot in transfected HEK293F cells); conditions: 3 hours, phospho-mu2, given as IC50 range
T2 construct: fused on or other part: HA tag (AAK1/HA in pIRES vector)
T2 sequence (Q2M2I8 1-822 limits assumed): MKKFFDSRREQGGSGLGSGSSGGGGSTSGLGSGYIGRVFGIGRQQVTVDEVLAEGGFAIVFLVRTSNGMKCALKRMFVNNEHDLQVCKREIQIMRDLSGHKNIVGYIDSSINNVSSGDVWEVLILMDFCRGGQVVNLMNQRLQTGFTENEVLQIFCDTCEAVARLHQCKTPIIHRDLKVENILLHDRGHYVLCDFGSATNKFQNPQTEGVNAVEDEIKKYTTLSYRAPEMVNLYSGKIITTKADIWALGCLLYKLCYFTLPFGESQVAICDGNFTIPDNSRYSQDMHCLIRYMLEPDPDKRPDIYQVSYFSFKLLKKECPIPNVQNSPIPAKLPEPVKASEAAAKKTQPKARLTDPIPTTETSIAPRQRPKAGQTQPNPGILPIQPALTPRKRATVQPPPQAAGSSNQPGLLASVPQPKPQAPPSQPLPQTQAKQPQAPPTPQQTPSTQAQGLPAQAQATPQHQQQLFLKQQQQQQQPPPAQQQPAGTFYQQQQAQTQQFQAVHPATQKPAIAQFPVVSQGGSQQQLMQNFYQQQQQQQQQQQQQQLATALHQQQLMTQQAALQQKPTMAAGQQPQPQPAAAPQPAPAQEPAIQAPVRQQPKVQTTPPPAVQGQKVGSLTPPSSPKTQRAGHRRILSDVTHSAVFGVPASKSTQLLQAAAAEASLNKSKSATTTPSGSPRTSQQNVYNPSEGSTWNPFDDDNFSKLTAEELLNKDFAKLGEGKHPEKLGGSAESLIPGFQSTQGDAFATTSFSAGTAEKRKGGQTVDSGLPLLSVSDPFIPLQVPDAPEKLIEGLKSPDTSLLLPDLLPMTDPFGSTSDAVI
Procedure: On day one, cells were plated on a 10 cm dish so that they are ˜80% confluent at time oftransfection. Roughly 12 million cells were in a 10 cm dish at time of transfection. […] The DNA was comprised of a mixture (per 10 cm dish) containing 3 ug AAK1/HA/pIRES (full length human, NCBI accession no. NP_055726.2), 45 μg Flag/AP2MI/pcDNA (full length human), and 1.5 ml OPTI-MEM. The Lipofectamine 2000 is made up of a mixture (per 10 cm dish) containing 144 μl Lipofectamine 2000 and 1.5 ml OPTI-MEM. Each mixture was transferred to individual 15 ml tubes and incubated at RT for 5 minutes, and then the two mixes were combined and incubated at RT for 20 minutes. Growth media was then aspirated from each 10 cm plate and replaced with 10 ml of DMEM+10% FBS (no GPS). Finally, 3 ml DNA/Lipofectamine mix was added to each 10 cm dish and mix gently followed by incubate of plate overnight at 37° C. and 5% CO2.
On day three, compounds were diluted in 100% DMSO at 1000× final concentration, followed by 3-fold serial dilutions for a total of 5 concentrations tested. Four compounds were tested per 10 cm dish. One ul of each compound dilution was then pipetted into a deep-well, 96-well plate, followed by addition of 500 μl DMEM+0.5% FBS into each well for a 2× final concentration of each compound. Cells were resuspended in a 10 cm dish by simple pipetting (HEK293 cells come off the plate that easy at this point) and then transferred to a 50 ml conical tube and pelleted by centrifugation at 1000 rpm for 5 min. Cell pellets were then resuspended in 2.75 ml DMEM+0.5% FBS per 10 cm dish and 100 μl of cell suspension transferred into each well of 96-well TC plate. Finally, 100 μl of 2× compound diluted in DMEM+0.5% FBS was then added into wells containing cell suspension for a 1× final concentration. Plates were then incubated at 37° C. and 5% CO2 for 3 hours followed by transferring of cell suspensions from each well into 12-tube PCR strips. The PCR strips were spun in a tip rack at 1000 rpm for 5 minutes to pellet cells and media was then removed by pipetting without disturbing the cell pellet.
Five ul of 10× NuPage Sample Reducing Agent (with 50 mM DTT) was to each sample followed by heat denaturing at 70 C for 10 min on PCR machine. […] For controls, 2 ng of phospho-mu2 or 20 ng mu2/Flag proteins were loaded in the last well of each gel. After SDS-PAGE, samples on each gel were transferred to PVDF membrane using an iBlot and membranes were blocked for one hour in TBST+5% milk, followed by wash 3× for 5-10 min with TBST.
Finally, the camera was set up to take a picture every 30 seconds for 10 minutes and the best image saved for each blot with no saturated signal (when the signal is saturated, the bands will be highlighted red). A volume analysis on each band was performed to obtain density values. Percent inhibition was calculated for each sample by first normalizing to total Mu2 expression levels and then comparing to 0% and 100% controls. IC50 values were then calculated using Excel fitting software.

[4] = 50 mg/kg sc, relative to gabapentin 200 mg/kg = 100% response

| Structure (SMILES) | Response [1, 4] | Response ([1]; 200 mg/kg sc, considered a 100% response) | IC50 [2] | IC50 [3] | Response ([1]; 30 mg/kg po, relative to gabapentin 200 mg/kg = 100% response) |
| --- | --- | --- | --- | --- | --- |
| CC(C)C[C@H](CN)CC(=O)O [Pregabalin, pregabalin] | 90% | – | – | – | – |
| NCC1(CC(=O)O)CCCCC1 [Gabapentin] | 60% | 100% | – | – | – |
| Cn1c(=O)c2cnccc2c2cc(-c3cnco3)c(OCC(N)CCC(F)(F)F)cc21 (stereo not drawn) [Example 114, 8-((2-amino-5,5,5-trifluoropentyl)oxy)-6-methyl-9-(oxazol-5-yl)benzo[c][2,7]naphthyridin-5(6H)-one] | – | – | 1 to 10 nM | 10 to 100 nM | – |
| Cn1c(=O)c2cnccc2c2cc(Br)c(OCC(N)CCC(F)(F)F)cc21 (stereo not drawn) [Example 113, 8-((2-amino-5,5,5-trifluoropentyl)oxy)-9-bromo-6-methylbenzo[c][2,7]naphthyridin-5(6H)-one] | – | – | 1 to 10 nM | 1 to 10 nM | – |
| CC(C)C[C@H](N)COc1cc2[nH]c(=O)c3cnccc3c2cc1Br [Example 108, (S)-8-((2-amino-4-methylpentyl)oxy)-9-bromobenzo[c][2,7]naphthyridin-5(6H)-one] | – | – | 1 to 10 nM | 1 to 10 nM | – |
| Cc1nccc2c1c(=O)n(C)c1cc(OC[C@@H](N)CC(C)C)c(-c3ccccn3)cc21 [Example 86, (S)-8-((2-amino-4-methylpentyl)oxy)-4,6-dimethyl-9-(pyridin-2-yl)benzo[c][2,7]naphthyridin-5(6H)-one] | – | – | 10 to 100 nM | 10 to 100 nM | – |
| CC(C)C[C@H](N)COc1cc2c(cc1F)c1ccncc1c(=O)n2C [Example 14, (S)-8-((2-amino-4-methylpentyl)oxy)-9-fluoro-6-methylbenzo[c][2,7]naphthyridin-5(6H)-one] | – | – | – | – | 62% |
| Cn1c(=O)c2cnccc2c2cc(Cl)c(OCC(N)CCC(F)(F)F)cc21 (stereo not drawn) [Example 115, 8-((2-amino-5,5,5-trifluoropentyl)oxy)-9-chloro-6-methylbenzo[c][2,7]naphthyridin-5(6H)-one] | – | – | 1 to 10 nM | 1 to 10 nM | – |
| CNC(=O)Nc1nccc2c1c(=O)n(C)c1cc(OC[C@@H](N)CC(C)C)c(F)cc21 [Example 145, (S)-1-(8-((2-amino-4-methylpentyl)oxy)-9-fluoro-6-methyl-5-oxo-5,6-dihydrobenzo[c][2,7]naphthyridin-4-yl)-3-methylurea] | – | – | 10 to 100 nM | 10 to 100 nM | – |
| Cc1nccc2c1c(=O)n(C)c1cc(OC[C@@H](N)CC(C)C)c(Br)cc21 [Example 122, (S)-8-((2-amino-4-methylpentyl)oxy)-9-bromo-4,6-dimethylbenzo[c][2,7]naphthyridin-5(6H)-one] | – | – | 1 to 10 nM | 1 to 10 nM | – |

— patent US20160333006A1, “ARYL LACTA KINASE INHIBITORS” (Bristol-Myers Squibb Company, priority 2014, published 2016)
